Reference: US8546414B2, “Ion channel modulators and methods of use” (Vertex Pharmaceuticals Incorporated, priority 2004, dated 2013)

Legend:
Format in all cases: cell-based
[1] = biological target: T1, CaV2.2 (Homo sapiens, UniProt Q00975); test: VIPR optical membrane potential assay with electrical stimulation, CaV2.2; conditions: Table 9, CaV 2.2 receptors
T1 construct: expressed in transfected cells; host or cells: HEK293
Outline: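 HEK293 cells stably expressing CaV2.2 stained with CC2-DMPE/DiSBAC2(3) voltage-sensitive dyes (10 μM final CC2-DMPE, 30 min, RT), then compound added and cells electrically stimulated for 3-5 s. Read-out: background-subtracted 460/580 nm emission ratio; response R=Rf/Ri (post- vs pre-stimulus ratio); antagonism seen as reduced response.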

[2] = biological target: T2, NaV1.3 (Homo sapiens, UniProt Q9NY46); test: VIPR optical membrane potential assay with electrical stimulation, NaV1.3; conditions: Table 9, NaV 1.3 receptors
T2 construct: expressed in transfected cells; host or cells: HEK293
Outline: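 HEK293 cells stably expressing NaV1.3, stained with CC2-DMPE (10 μM final) then DiSBAC2(3) with ABSC1, 30 min each at RT; compounds added with oxonol. Electrical stimulation for 3 s; 460/580 nm background-subtracted emission ratio Rf/Ri, normalised to tetracaine (positive) and untreated (negative) controls.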

[3] = biological target: NaV1.8 (Homo sapiens, UniProt Q9Y5Y9); test: VIPR optical membrane potential assay, NaV1.8 (other subtypes in an analogous mode); conditions: Table 9, NaV 1.8 receptors
Procedure: Antagonist properties of test compounds were assessed as follows. Cells expressing the NaV of interest were placed into microtiter plates. After an incubation period, the cells were stained with fluorescent dyes sensitive to the transmembrane potential. The test compounds were added to the microtiter plate. The cells were stimulated with either chemical or electrical means to evoke a NaV dependent membrane potential change from unblocked channels, which was detected and measured with trans-membrane potential-sensitive dyes. Antagonists were detected as a decreased membrane potential response to the stimulus.
24 hours before the assay on VIPR, CHO cells endogenously expressing a NaV 1.2 type voltage-gated NaV are seeded in 96-well poly-lysine coated plates at 60,000 cells per well. […] Plates are incubated in the dark for 30 minutes at room temperature. • 4) While the cells are being stained with coumarin, a […] oxonol solution in BS#2 is prepared. […] As before, the residual volume should be 40 μL. • 6) Upon removing the bath, the cells are loaded with 80 μL of the DiSBAC2(3) solution, after which test compound, dissolved in DMSO, is added to achieve the desired test concentration to each well from the drug addition plate and mixed thoroughly. The volume in the well should be roughly 121 μL. The cells are then incubated for 20-30 minutes. • 7) Once the incubation is complete, the cells are ready to be assayed on VIPR® with a sodium addback protocol. 120 μL of Bath solution #1 is added to stimulate the NaV dependent depolarization. […] tetracaine was used as an antagonist positive control for block of the NaV channel. Analysis of VIPR® Data:
The following is an example of how NaV1.3 inhibition activity is measured using the optical membrane potential method#2. Other subtypes are performed in an analogous mode in a cell line expressing the NaV of interest.

Chain of NaV1.8 (Q9Y5Y9 whole entry): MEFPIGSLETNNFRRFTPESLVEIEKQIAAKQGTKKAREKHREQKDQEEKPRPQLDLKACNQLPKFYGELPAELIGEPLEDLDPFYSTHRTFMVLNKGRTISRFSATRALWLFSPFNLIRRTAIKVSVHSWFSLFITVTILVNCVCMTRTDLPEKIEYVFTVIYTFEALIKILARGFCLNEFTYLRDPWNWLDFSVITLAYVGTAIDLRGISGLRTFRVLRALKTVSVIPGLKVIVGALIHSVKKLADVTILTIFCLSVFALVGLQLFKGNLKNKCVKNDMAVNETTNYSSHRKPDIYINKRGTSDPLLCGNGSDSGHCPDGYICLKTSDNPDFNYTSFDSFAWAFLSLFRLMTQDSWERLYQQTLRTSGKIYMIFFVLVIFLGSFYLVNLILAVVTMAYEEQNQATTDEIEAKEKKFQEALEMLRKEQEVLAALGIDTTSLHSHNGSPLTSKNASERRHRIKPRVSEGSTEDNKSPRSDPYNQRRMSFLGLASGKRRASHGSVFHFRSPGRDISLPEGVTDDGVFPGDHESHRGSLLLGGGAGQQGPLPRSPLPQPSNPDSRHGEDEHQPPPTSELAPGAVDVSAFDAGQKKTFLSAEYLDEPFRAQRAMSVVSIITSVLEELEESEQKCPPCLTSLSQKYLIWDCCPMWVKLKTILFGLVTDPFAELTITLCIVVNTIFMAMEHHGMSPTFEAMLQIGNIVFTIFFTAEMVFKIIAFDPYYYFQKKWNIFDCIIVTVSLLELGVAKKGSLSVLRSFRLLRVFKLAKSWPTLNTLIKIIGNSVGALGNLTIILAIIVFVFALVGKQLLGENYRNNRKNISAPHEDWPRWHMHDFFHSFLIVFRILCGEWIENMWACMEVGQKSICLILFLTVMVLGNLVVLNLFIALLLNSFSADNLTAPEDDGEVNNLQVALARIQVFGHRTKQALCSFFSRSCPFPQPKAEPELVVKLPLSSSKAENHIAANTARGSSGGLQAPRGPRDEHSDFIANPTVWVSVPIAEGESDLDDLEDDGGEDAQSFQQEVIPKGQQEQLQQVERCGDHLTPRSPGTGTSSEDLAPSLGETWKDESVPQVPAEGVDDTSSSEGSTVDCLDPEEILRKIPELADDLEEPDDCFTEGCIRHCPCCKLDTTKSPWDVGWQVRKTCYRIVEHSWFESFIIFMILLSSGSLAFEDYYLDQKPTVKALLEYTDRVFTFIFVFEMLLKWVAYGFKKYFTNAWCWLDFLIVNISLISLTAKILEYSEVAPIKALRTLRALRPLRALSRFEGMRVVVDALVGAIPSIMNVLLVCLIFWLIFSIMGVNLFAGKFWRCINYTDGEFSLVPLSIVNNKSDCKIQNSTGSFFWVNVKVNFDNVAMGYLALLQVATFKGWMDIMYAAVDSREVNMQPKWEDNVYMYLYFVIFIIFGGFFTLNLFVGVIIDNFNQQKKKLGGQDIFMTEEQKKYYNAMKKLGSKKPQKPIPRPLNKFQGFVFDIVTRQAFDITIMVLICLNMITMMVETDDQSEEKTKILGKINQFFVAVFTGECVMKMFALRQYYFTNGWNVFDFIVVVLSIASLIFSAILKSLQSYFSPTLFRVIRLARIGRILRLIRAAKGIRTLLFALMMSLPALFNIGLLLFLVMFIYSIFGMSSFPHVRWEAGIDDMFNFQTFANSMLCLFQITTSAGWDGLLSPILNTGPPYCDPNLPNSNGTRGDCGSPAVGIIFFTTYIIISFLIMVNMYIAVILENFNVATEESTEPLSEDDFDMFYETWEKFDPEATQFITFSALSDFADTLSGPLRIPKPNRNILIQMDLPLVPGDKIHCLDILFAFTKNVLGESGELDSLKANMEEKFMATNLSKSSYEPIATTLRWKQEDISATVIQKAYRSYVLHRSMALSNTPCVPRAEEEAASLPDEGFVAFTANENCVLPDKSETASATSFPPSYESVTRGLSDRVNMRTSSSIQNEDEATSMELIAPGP
T2 sequence (Q9NY46 whole entry): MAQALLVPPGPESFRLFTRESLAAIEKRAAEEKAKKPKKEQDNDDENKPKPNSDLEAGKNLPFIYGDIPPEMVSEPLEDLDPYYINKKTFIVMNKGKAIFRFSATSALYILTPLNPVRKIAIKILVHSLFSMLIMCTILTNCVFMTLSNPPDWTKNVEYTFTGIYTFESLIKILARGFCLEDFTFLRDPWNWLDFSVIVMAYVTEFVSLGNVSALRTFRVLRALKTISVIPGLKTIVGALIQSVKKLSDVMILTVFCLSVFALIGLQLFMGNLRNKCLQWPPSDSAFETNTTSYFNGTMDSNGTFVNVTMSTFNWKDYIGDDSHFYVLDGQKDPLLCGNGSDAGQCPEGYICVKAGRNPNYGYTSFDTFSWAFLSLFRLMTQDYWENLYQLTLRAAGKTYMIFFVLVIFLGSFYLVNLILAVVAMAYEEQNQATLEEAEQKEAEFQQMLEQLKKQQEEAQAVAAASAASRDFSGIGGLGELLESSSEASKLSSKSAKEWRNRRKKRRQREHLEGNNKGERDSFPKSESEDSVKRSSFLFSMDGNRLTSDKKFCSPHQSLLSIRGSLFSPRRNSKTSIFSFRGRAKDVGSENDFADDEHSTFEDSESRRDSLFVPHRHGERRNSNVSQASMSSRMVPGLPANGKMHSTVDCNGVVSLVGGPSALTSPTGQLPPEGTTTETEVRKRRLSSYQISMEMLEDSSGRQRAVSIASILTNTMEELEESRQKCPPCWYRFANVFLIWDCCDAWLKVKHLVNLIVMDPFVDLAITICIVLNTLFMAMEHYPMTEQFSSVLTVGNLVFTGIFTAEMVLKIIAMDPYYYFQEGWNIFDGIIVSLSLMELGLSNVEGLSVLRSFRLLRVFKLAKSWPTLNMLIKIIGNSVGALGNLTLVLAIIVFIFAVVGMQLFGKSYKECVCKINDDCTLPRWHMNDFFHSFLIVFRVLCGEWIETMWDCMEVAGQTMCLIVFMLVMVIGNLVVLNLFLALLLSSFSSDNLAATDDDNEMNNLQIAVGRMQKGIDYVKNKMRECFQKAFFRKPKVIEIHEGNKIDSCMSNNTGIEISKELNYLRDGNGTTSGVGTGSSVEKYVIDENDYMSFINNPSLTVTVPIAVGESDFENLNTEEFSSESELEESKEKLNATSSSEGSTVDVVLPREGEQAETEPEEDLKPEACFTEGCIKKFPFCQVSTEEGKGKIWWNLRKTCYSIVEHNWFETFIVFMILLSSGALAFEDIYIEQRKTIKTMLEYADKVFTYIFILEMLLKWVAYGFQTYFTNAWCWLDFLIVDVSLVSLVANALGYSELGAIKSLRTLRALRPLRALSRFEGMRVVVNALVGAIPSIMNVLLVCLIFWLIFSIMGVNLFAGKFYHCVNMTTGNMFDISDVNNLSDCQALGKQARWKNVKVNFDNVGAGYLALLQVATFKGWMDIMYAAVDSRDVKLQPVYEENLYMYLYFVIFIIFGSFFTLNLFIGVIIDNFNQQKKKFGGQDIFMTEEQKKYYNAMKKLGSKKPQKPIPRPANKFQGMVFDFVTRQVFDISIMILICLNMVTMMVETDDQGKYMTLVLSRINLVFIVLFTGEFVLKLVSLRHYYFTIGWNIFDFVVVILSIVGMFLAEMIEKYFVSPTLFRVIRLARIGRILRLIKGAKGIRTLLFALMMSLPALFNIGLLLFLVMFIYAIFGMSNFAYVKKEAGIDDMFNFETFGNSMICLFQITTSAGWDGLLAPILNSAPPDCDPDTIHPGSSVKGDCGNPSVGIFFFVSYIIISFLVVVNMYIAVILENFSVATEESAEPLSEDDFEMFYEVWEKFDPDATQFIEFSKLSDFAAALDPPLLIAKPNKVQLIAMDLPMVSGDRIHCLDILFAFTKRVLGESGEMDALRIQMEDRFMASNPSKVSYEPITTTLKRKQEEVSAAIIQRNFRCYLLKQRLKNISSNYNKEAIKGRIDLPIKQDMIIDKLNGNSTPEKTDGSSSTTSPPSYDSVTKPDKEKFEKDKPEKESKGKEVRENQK

O=C(c1cnc(N2CCSCC2)nc1-c1ccccc1F)N(Cc1ccccc1)C1CCC1 [compound 80]
IC50 [1]: 2 to 10 µM | IC50 [2]: 2 to 10 µM | IC50 [3]: > 10 µM

CCC(COC)N(Cc1ccccc1)C(=O)c1cnc(N2CCSCC2)nc1-c1ccccc1F (stereo not drawn) [compound 81]
IC50 [1]: 2 to 10 µM | IC50 [2]: 2 to 10 µM | IC50 [3]: > 10 µM

CC(C)N(C(=O)c1cnc(N2CCCCC2)nc1-c1ccccc1Cl)c1ccccc1 [compound 82]
IC50 [1]: 2 to 10 µM | IC50 [2]: > 10 µM | IC50 [3]: > 10 µM

CCN(CCOC)c1ncc(C(=O)N(Cc2ccccc2)C(C)C)c(-c2ccccc2F)n1 [compound 83]
IC50 [1]: < 2 µM | IC50 [2]: 2 to 10 µM | IC50 [3]: 2 to 10 µM

CC1COc2ccccc2N1C(=O)c1cnc(N2CCOCC2)nc1-c1ccccc1F (stereo not drawn) [compound 84]
IC50 [1]: > 10 µM | IC50 [2]: > 10 µM | IC50 [3]: > 10 µM

O=C(c1cnc(N2CCSCC2)nc1-c1ccccc1F)N(Cc1ccc(C(F)(F)F)cc1)C1CC1 [compound 85]
IC50 [1]: > 10 µM | IC50 [2]: 2 to 10 µM | IC50 [3]: 2 to 10 µM

COc1cccc(N(C(=O)c2cnc(N3CCN(C)CC3)nc2-c2ccccc2F)C(C)C)c1 [compound 87]
IC50 [1]: > 10 µM | IC50 [2]: > 10 µM | IC50 [3]: > 10 µM

CC(C)N(C(=O)c1cnc(N2CCOCC2)nc1-c1ccccc1F)c1ccccc1 [compound 88]
IC50 [1]: 2 to 10 µM | IC50 [2]: > 10 µM | IC50 [3]: > 10 µM

COc1cccc(OC)c1-c1nc(N2CCOCC2)ncc1C(=O)N(Cc1ccccc1)C(C)C [compound 89]
IC50 [1]: > 10 µM | IC50 [2]: > 10 µM | IC50 [3]: > 10 µM

O=C(c1cnc(N2CCCCC2)nc1-c1ccccc1F)N(Cc1ccccc1)C1CC1 [compound 90]
IC50 [1]: 2 to 10 µM | IC50 [2]: 2 to 10 µM | IC50 [3]: 2 to 10 µM

O=C(c1cnc(N2CCOCC2)nc1-c1ccccc1F)N1CC=C(c2ccccc2)CC1 [compound 91]
IC50 [1]: > 10 µM | IC50 [2]: > 10 µM | IC50 [3]: > 10 µM

CC(C)N(Cc1ccccc1)C(=O)c1cnc(N2CCC3CCCCC3C2)nc1-c1ccccc1F (stereo not drawn) [compound 92]
IC50 [1]: < 2 µM | IC50 [2]: > 10 µM | IC50 [3]: > 10 µM

CC(C)N(C(=O)c1cnc(N2CCCCC2)nc1-c1ccccc1F)c1ccccc1 [compound 93]
IC50 [1]: 2 to 10 µM | IC50 [2]: 2 to 10 µM | IC50 [3]: > 10 µM

CC(C)N(Cc1ccc2c(c1)OCO2)C(=O)c1cnc(N2CCCCC2)nc1-c1ccccc1F [compound 94]
IC50 [1]: < 2 µM | IC50 [2]: < 2 µM | IC50 [3]: 2 to 10 µM

CCN(CCC#N)c1ncc(C(=O)N(Cc2ccccc2)C(C)C)c(-c2ccccc2F)n1 [compound 96]
IC50 [1]: < 2 µM | IC50 [2]: 2 to 10 µM | IC50 [3]: > 10 µM

O=C(NC1CC1c1ccccc1)c1cnc(N2CCOCC2)nc1-c1ccccc1F (stereo not drawn) [compound 97]
IC50 [1]: > 10 µM | IC50 [2]: > 10 µM | IC50 [3]: > 10 µM

CC(C)N(Cc1ccccc1)C(=O)c1cnc(N2CCSCC2)nc1-c1ccccc1F [compound 98]
IC50 [1]: < 2 µM | IC50 [2]: 2 to 10 µM | IC50 [3]: 2 to 10 µM

O=C(c1cnc(N2CCOCC2)nc1-c1ccccc1F)N(Cc1cnc2ccccc2c1)C1CC1 [compound 99]
IC50 [1]: > 10 µM | IC50 [2]: > 10 µM | IC50 [3]: > 10 µM

O=C(c1cnc(N2CCOCC2)nc1-c1ccccc1F)N(Cc1ccccc1)C1CC1 [compound 100]
IC50 [1]: 2 to 10 µM | IC50 [2]: 2 to 10 µM | IC50 [3]: > 10 µM

CC(C)N(C(=O)c1cnc(N2CCCCC2)nc1-c1ccccc1Cl)c1cccc(C#N)c1 [compound 101]
IC50 [1]: 2 to 10 µM | IC50 [2]: 2 to 10 µM | IC50 [3]: > 10 µM

N=C(N)NCCCNC(=O)c1cnc(N2CCC3CCCCC3C2)nc1-c1ccccc1F (stereo not drawn) [compound 102]
IC50 [1]: > 10 µM | IC50 [2]: > 10 µM | IC50 [3]: > 10 µM

CCN(CCOC)c1ncc(C(=O)N(Cc2cccc(OC)c2)C(C)C)c(-c2ccccc2F)n1 [compound 103]
IC50 [1]: < 2 µM | IC50 [2]: < 2 µM | IC50 [3]: > 10 µM

COc1cccc(N(C(=O)c2c(C)nc(N3CCCCC3)nc2-c2ccccc2F)C(C)C)c1 [compound 104]
IC50 [1]: > 10 µM | IC50 [2]: 2 to 10 µM | IC50 [3]: > 10 µM

CC(C)N(C(=O)c1cnc(N2CCC3CCCCC3C2)nc1-c1ccccc1F)c1ccccc1 (stereo not drawn) [compound 105]
IC50 [1]: 2 to 10 µM | IC50 [2]: 2 to 10 µM | IC50 [3]: > 10 µM

CC(C)N(Cc1ccccc1)C(=O)c1cnc(Nc2nc3ccccc3[nH]2)nc1-c1ccccc1F [compound 106]
IC50 [1]: > 10 µM | IC50 [2]: > 10 µM | IC50 [3]: > 10 µM

O=C(c1cnc(N2CCOCC2)nc1-c1ccccc1F)N1CCc2ccccc2C1 [compound 107]
IC50 [1]: > 10 µM | IC50 [2]: > 10 µM | IC50 [3]: > 10 µM

COc1ccc(N(C(=O)c2cnc(N3CCCCC3)nc2-c2ccccc2F)C(C)C)cc1 [compound 108]
IC50 [1]: < 2 µM | IC50 [2]: 2 to 10 µM | IC50 [3]: > 10 µM

O=C(c1cnc(N2CCSCC2)nc1-c1ccccc1F)N(Cc1ccccc1)C1CC1 [compound 109]
IC50 [1]: 2 to 10 µM | IC50 [2]: 2 to 10 µM | IC50 [3]: > 10 µM

O=C(c1cnc(N2CCOCC2)nc1-c1ccccc1F)N(Cc1cccc(F)c1)C1CC1 [compound 110]
IC50 [1]: 2 to 10 µM | IC50 [2]: > 10 µM | IC50 [3]: > 10 µM

CC(C)N(C(=O)c1cnc(N2CCOCC2)nc1-c1ccccc1F)c1cccc(N(C)C)c1 [compound 111]
IC50 [1]: > 10 µM | IC50 [2]: > 10 µM | IC50 [3]: > 10 µM

CC(C)N(C(=O)c1cnc(N2CCCCC2)nc1-c1ccccc1F)c1cccc2ccccc12 [compound 112]
IC50 [1]: > 10 µM | IC50 [2]: 2 to 10 µM | IC50 [3]: > 10 µM

CCC(COC)N(Cc1ccccc1)C(=O)c1cnc(N2CCOCC2)nc1-c1ccccc1F (stereo not drawn) [compound 113]
IC50 [1]: > 10 µM | IC50 [2]: 2 to 10 µM | IC50 [3]: > 10 µM

O=C(c1cnc(N2CCC3CCCCC3C2)nc1-c1ccccc1F)N(Cc1cccc(-c2ccncc2)c1)C1CC1 (stereo not drawn) [compound 114]
IC50 [1]: < 2 µM | IC50 [2]: > 10 µM | IC50 [3]: > 10 µM

COc1cccc(N(C(=O)c2cnc(N3CCCCC3)nc2-c2ccccc2Cl)C2CCCCC2)c1 [compound 115]
IC50 [1]: 2 to 10 µM | IC50 [2]: > 10 µM | IC50 [3]: > 10 µM

COc1cccc(N(C(=O)c2cnc(N3CCCCC3)nc2-c2ccccc2F)C2CCC2)c1 [compound 116]
IC50 [1]: 2 to 10 µM | IC50 [2]: 2 to 10 µM | IC50 [3]: > 10 µM

CC(C)N(Cc1ccccc1)C(=O)c1cnc(N2CCCCC2)nc1-c1ccccc1F [compound 117]
IC50 [1]: < 2 µM | IC50 [2]: 2 to 10 µM | IC50 [3]: 2 to 10 µM

CC(C)N(Cc1ccccc1)C(=O)c1cnc(NCCc2ccc(F)cc2)nc1-c1ccccc1F [compound 118]
IC50 [1]: < 2 µM | IC50 [2]: 2 to 10 µM | IC50 [3]: > 10 µM

CC(C)N(Cc1ccc(C(C)(C)C)cc1)C(=O)c1cnc(N2CCCCC2)nc1-c1ccccc1Cl [compound 119]
IC50 [1]: 2 to 10 µM | IC50 [2]: > 10 µM | IC50 [3]: > 10 µM

CC(C)N(Cc1ccc2c(c1)OCO2)C(=O)c1cnc(N2CCC3CCCCC3C2)nc1-c1ccccc1F (stereo not drawn) [compound 120]
IC50 [1]: < 2 µM | IC50 [2]: 2 to 10 µM | IC50 [3]: > 10 µM

O=C(NCCOc1ccccc1)c1cnc(N2CCOCC2)nc1-c1ccc(Oc2ccccc2)cc1 [compound 121]
IC50 [1]: 2 to 10 µM | IC50 [2]: 2 to 10 µM | IC50 [3]: > 10 µM

CC(C)N(Cc1ccc(C(C)(C)C)cc1)C(=O)c1cnc(N2CCCCC2)nc1-c1ccccc1F [compound 122]
IC50 [1]: 2 to 10 µM | IC50 [2]: > 10 µM | IC50 [3]: > 10 µM
